How the values were obtained:
Type in all cases: functional
[1] = test system: Staphylococcus aureus; assay: Antibacterial activity against methicillin-resistant Staphylococcus aureus Col and Staphylococcus aureus Col-LysoR co-infected in CF1 mouse assessed as kidney infection after 7 days
[2] = test system: Staphylococcus aureus; assay: Antibacterial activity against methicillin-resistant Staphylococcus aureus Col in CF1 mouse assessed as kidney infection after 7 days
[3] = test system: Staphylococcus aureus; assay: Antibacterial activity against methicillin-resistant Staphylococcus aureus MBT 5040 in CF1 mouse assessed as kidney infection after 7 days
[4] = test system: Staphylococcus aureus; assay: Antibacterial activity against methicillin-resistant Staphylococcus aureus MBT 5040 and Staphylococcus aureus MBT 5040-LysoR co-infected in CF1 mouse assessed as kidney infection after 7 days
[5] = test system: Staphylococcus aureus; assay: Antibacterial activity against methicillin-resistant Staphylococcus aureus Col
[6] = test system: Staphylococcus aureus; assay: Antibacterial activity against methicillin-resistant Staphylococcus aureus Col-LysoR
[7] = test system: Staphylococcus aureus; assay: Antibacterial activity against methicillin-resistant Staphylococcus aureus MBT 5040
[8] = test system: Staphylococcus aureus; assay: Antibacterial activity against methicillin-resistant Staphylococcus aureus MBT 5040-LysoR

Row | SMILES | CFU [1] | CFU [2] | CFU [3] | CFU [4] | MIC [5] | MIC [6] | MIC [7] | MIC [8]
1 | CCOc1ccc2ccccc2c1C(=O)N[C@@H]1C(=O)N2[C@@H]1SC(C)(C)[C@@H]2C(=O)O [NAFCILLIN] | 10780 | 9960 | 5630 | 9520 |  |  |  | 
2 | Cc1onc(-c2ccccc2)c1C(=O)N[C@@H]1C(=O)N2[C@@H]1SC(C)(C)[C@@H]2C(=O)[O-].[Na+] |  |  |  |  | > 32 µg/mL | 0.25 µg/mL | > 32 µg/mL | 0.25 µg/mL
